From PMC8402619 (Viruses, 2021)

What was measured:
[1] = Plasma protein binding by equilibrium dialysis, rabbit plasma; type: in vitro ADME; conditions: pH 7.4
[2] = Metabolism in cryopreserved human hepatocyte incubations; type: in vitro ADME
[3] = Metabolism in human intestinal S9 fraction; type: in vitro ADME; conditions: [3H]islatravir 5 µM, M4 the only metabolite detected
CYP2C8 = target: T1, CYP2C8 (Homo sapiens, UniProt P10632); experiment: Reversible CYP inhibition in pooled human liver microsomes; type: in vitro ADME
T1 sequence (P10632 1-490): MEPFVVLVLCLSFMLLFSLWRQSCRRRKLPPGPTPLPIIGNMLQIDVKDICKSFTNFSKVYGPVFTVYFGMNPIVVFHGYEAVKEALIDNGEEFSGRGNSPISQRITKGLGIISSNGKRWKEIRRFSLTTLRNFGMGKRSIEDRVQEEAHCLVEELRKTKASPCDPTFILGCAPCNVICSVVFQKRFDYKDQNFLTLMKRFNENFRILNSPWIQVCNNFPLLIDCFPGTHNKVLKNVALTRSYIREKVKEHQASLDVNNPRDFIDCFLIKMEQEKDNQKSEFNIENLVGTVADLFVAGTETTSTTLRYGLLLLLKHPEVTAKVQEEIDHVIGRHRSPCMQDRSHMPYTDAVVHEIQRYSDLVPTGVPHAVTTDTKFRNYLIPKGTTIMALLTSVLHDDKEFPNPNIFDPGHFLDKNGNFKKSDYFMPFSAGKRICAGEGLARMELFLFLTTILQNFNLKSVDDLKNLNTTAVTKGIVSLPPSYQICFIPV

CYP2C19 = CYP2C19 (Homo sapiens, UniProt P33261); experiment: as above; type: in vitro ADME
Chain of CYP2C19 (P33261 whole entry): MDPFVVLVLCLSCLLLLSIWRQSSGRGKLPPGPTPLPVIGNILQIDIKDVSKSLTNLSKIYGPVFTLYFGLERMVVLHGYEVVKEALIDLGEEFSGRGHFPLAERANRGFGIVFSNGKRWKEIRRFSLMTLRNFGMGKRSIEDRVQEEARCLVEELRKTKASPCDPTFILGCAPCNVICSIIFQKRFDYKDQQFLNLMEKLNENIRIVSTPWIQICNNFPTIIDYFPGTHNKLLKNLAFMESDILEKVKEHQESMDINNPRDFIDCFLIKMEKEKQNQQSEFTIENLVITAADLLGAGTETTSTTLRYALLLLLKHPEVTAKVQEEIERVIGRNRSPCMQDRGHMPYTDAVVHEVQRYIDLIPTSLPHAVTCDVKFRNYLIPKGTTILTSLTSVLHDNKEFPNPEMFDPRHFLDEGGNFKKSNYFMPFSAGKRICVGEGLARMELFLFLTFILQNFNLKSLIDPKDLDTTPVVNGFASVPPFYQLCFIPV

CYP2D6 = CYP2D6 (Homo sapiens, UniProt P10635); experiment: as above; type: in vitro ADME
Chain of CYP2D6 (P10635 whole entry): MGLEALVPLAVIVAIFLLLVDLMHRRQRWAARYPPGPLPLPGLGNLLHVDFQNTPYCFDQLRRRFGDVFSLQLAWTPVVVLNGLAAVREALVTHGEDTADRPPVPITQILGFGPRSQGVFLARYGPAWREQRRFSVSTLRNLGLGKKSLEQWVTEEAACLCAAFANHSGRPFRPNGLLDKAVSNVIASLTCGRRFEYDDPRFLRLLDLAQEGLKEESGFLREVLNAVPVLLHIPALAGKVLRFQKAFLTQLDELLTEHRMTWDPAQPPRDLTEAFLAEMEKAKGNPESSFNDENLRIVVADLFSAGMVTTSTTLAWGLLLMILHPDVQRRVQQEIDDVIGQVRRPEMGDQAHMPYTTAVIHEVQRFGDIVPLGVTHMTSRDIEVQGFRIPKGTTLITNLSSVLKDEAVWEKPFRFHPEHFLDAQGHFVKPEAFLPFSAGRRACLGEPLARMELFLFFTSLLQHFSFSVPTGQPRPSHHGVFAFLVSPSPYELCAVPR

CYP3A4 [4] = target: T2, CYP3A4 (Homo sapiens, UniProt P08684); experiment: as above; type: in vitro ADME
T2 sequence (P08684 whole entry): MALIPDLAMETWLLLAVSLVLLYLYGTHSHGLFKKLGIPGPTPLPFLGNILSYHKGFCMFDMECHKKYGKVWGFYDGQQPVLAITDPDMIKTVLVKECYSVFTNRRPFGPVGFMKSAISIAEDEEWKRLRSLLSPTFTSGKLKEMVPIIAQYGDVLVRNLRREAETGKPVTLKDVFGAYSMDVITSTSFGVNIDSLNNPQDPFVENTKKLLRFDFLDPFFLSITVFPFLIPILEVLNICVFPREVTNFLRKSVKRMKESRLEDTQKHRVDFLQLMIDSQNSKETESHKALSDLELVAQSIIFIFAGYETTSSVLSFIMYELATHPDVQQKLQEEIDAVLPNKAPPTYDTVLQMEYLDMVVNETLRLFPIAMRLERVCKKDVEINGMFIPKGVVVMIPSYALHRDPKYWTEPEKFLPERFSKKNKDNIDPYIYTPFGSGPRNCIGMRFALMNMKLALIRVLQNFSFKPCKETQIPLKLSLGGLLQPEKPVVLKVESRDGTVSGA

CYP1A2 = target: T3, CYP1A2 (Homo sapiens, UniProt P05177); experiment: Time-dependent CYP inhibition in pooled human liver microsomes; type: in vitro ADME
T3 sequence (P05177 1-516): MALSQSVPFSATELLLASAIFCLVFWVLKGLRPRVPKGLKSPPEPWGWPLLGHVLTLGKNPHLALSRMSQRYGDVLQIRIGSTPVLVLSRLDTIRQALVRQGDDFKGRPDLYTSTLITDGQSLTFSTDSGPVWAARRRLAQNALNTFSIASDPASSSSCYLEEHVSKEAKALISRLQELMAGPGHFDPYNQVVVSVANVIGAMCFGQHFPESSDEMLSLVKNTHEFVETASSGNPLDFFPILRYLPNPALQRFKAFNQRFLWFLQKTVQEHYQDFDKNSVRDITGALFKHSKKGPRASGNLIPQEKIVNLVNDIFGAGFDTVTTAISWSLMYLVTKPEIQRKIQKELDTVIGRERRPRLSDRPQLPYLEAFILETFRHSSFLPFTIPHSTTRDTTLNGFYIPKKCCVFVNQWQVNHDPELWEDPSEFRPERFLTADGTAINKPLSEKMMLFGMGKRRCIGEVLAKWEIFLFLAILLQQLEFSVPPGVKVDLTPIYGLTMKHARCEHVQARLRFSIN

CYP3A4 [5] = target: T2, CYP3A4; experiment: as above; type: in vitro ADME
MRP2 = target: T4, MRP2 (Homo sapiens, UniProt Q92887); experiment: Inhibition of ATP-dependent probe uptake in Sf9 membrane vesicles; type: in vitro ADME; conditions: MRP2-mediated ATP-dependent uptake of ethacrynic acid glutathione conjugate
T4 construct: purchased Thermo Fisher Scientific; host or cells: Sf9
T4 sequence (Q92887 whole entry): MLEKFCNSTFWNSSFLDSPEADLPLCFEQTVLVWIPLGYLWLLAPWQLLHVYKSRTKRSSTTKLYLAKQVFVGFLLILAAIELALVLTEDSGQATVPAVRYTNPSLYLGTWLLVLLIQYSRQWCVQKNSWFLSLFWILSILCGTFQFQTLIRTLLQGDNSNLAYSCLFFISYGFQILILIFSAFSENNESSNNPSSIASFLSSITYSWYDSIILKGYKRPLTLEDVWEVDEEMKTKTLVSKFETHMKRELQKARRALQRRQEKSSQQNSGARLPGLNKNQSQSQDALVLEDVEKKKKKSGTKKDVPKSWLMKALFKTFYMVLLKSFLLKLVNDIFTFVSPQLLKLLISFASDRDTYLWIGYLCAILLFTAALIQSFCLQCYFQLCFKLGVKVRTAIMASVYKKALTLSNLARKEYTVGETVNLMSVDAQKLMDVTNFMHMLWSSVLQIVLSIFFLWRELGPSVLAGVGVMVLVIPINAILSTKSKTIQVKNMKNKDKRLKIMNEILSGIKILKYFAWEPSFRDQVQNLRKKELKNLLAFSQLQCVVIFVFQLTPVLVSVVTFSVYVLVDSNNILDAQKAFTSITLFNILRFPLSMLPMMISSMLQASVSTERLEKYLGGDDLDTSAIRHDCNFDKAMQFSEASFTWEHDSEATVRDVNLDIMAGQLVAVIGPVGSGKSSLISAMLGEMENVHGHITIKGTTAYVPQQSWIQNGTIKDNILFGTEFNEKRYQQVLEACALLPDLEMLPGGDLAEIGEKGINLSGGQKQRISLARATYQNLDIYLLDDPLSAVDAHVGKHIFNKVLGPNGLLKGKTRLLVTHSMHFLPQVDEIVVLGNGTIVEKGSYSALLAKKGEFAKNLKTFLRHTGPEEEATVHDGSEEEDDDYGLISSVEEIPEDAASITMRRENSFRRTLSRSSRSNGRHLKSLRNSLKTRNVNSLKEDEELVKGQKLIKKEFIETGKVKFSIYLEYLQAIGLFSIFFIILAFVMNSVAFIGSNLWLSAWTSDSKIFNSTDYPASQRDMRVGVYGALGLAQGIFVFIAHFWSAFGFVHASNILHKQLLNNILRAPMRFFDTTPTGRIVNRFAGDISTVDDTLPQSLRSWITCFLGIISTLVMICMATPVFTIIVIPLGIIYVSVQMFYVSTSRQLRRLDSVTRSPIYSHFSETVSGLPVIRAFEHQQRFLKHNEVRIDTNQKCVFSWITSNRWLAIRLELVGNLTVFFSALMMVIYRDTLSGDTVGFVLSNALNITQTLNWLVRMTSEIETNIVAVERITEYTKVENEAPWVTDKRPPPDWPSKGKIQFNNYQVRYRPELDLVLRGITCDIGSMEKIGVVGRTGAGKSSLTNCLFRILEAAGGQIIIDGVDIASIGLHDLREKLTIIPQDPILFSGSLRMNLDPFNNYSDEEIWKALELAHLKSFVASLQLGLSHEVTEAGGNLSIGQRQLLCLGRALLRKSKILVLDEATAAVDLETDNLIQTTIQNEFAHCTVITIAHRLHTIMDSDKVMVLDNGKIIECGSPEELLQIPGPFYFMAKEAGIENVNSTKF

MATE2K = target: T5, MATE2K (Homo sapiens, UniProt Q86VL8); experiment: Inhibition of transporter-mediated probe uptake in MDCKII-MATE2K cells; type: in vitro ADME
T5 construct: expressed in transfected cells; host or cells: MDCKII
T5 sequence (Q86VL8 1-566 isoform Q86VL8-3): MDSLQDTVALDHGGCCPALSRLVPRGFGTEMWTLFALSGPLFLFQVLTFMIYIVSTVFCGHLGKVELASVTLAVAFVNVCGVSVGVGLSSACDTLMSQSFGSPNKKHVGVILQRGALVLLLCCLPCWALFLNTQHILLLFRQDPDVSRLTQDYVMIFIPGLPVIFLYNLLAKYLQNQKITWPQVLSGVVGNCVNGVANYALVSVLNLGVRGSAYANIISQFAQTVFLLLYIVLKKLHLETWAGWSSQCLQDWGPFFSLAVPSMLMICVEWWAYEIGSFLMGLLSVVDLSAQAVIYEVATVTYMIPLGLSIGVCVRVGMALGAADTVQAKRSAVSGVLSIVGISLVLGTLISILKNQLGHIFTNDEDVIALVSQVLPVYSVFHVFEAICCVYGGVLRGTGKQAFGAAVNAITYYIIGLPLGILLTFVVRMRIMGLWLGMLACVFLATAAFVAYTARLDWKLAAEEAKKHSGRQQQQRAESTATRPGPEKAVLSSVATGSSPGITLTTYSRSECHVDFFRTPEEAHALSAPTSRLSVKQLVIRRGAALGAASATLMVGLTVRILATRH

[6] = Projected human exposure for a 60 mg oral dose
BCRP = target: T6, BCRP (Homo sapiens, UniProt Q9UNQ0); experiment: Inhibition of BCRP-mediated methotrexate uptake in Sf9 membrane vesicles; type: in vitro ADME; set-up: purchased Thermo Fisher Scientific; host or cells: Sf9
T6 sequence (Q9UNQ0 1-655): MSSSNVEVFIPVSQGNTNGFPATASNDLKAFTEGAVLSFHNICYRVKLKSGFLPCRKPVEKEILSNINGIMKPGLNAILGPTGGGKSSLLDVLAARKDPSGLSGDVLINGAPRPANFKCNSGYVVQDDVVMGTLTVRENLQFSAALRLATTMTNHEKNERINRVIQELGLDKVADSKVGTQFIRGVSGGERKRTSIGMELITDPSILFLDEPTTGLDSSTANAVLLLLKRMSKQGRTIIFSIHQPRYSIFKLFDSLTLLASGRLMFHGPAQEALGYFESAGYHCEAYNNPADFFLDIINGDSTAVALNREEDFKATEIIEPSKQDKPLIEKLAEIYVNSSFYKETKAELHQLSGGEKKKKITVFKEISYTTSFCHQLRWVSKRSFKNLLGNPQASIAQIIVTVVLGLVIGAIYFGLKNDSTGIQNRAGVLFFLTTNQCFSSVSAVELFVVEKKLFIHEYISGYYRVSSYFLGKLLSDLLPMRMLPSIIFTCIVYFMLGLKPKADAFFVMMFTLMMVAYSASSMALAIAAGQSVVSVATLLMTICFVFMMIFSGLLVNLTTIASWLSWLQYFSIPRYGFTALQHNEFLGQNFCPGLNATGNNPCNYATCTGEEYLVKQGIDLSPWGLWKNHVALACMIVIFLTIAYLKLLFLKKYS

Question: What does the source list for `C#C[C@]1(CO)O[C@@H](n2cnc3c(N)nc(F)nc32)C[C@@H]1O` [Islatravir, 4′-Ethynyl-2-fluoro-2′-deoxyadenosine]?
Answer: fraction unbound at 24 h, 0.1 µM [1]: > 0.84; metabolites observed [2]: no detectable metabolites; turnover [3]: low turnover; DDI Potential (CYP2C8; CYP2C8 reversible inhibition, FDA, EMA, PMDA guidance): Low risk; Maximum Unbound Plasma Concentration (Imax,u) to Ki,u Ratio (CYP2C8; CYP2C8 reversible, 60 mg, Cmax 1.01 µM, fu,p 0.96, Ki,u = IC50/2): <0.019 µM; IC50 (CYP2C8; reversible, CYP2C8 amodiaquine N-deethylation, read-out: Islatravir IC50): > 100 µM; DDI Potential (CYP2C19; CYP2C19 reversible inhibition, FDA, EMA, PMDA guidance): Low risk; Maximum Unbound Plasma Concentration (Imax,u) to Ki,u Ratio (CYP2C19; CYP2C19 reversible, 60 mg, Cmax 1.01 µM, fu,p 0.96, Ki,u = IC50/2): <0.019 µM; IC50 (CYP2C19; reversible, CYP2C19 S-mephenytoin 4′-hydroxylation, read-out: Islatravir IC50): > 100 µM; DDI Potential (CYP2D6; CYP2D6 reversible inhibition, FDA, EMA, PMDA guidance): Low risk; Maximum Unbound Plasma Concentration (Imax,u) to Ki,u Ratio (CYP2D6; CYP2D6 reversible, 60 mg, Cmax 1.01 µM, fu,p 0.96, Ki,u = IC50/2): <0.019 µM; IC50 (CYP2D6; reversible, CYP2D6 dextromethorphan O-demethylation, read-out: Islatravir IC50): > 100 µM; DDI Potential (CYP3A4 [4]; CYP3A4 reversible inhibition, FDA, EMA, PMDA guidance): Low risk; Maximum Unbound Plasma Concentration (Imax,u) to Ki,u Ratio (CYP3A4 [4]; CYP3A4 reversible, 60 mg, Cmax 1.01 µM, fu,p 0.96, Ki,u = IC50/2): <0.010 µM; Intestinal Concentration (Igut) to Ki,u Ratio (CYP3A4 [4]; CYP3A4 reversible, Igut = 60 mg/250 mL = 818 µM): <8.2 µM; time-dependent inhibition (CYP1A2; CYP1A2, pre-incubation of 10 and 50 µM for up to 30 min): no time-dependent inhibition; DDI Potential (CYP1A2; CYP1A2 time dependent inhibition): Low risk ^h; IC50 (CYP1A2; time dependent, CYP1A2, read-out: Islatravir IC50): > 50 µM; time-dependent inhibition (CYP3A4 [5]; CYP3A4, pre-incubation of 10 and 50 µM for up to 30 min): no time-dependent inhibition; DDI Potential (CYP3A4 [5]; CYP3A4 time dependent inhibition): Low risk ^h; IC50 (CYP3A4 [5]; time dependent, CYP3A4, read-out: Islatravir IC50): > 50 µM; IC50 (MRP2): > 100 µM; DDI Potential (MATE2K; MATE2K inhibition, FDA, EMA, PMDA guidance): Low risk; IC50 (MATE2K; MATE2K, metformin uptake, read-out: Islatravir IC50): > 75 µM; Maximum Unbound Plasma Concentration (Imax,u) to IC50 Ratio (MATE2K; MATE2K, 60 mg, Cmax 1.01 µM, fu,p 0.96): <0.013 µM; projected maximum free concentration at the liver inlet [6]: approximately 10 µM; DDI Potential (BCRP; BCRP inhibition, FDA, EMA, PMDA guidance): Low risk; IC50 (BCRP; BCRP-mediated methotrexate uptake, read-out: Islatravir IC50): > 100 µM; Maximum Unbound Plasma Concentration (Imax,u) to IC50 Ratio (BCRP; BCRP, 60 mg, Cmax 1.01 µM, fu,p 0.96): <0.010 µM; Intestinal Concentration (Igut) to IC50 Ratio (BCRP; BCRP, Igut = 60 mg/250 mL = 818 µM): <8.2 µM; inhibition at 5 min, 100 µM (BCRP; human, BCRP-containing Sf9 membrane vesicles, probe [3H]methotrexate, 100 µM islatravir, membrane vesicle assay): 35%
